In patent publication US5710174A, “Factor XIIIA inhibitor” (Zymo Genetics, Inc., priority 1995, dated 1998):

Legend:
[1] = Solubility in ethanol / DMSO; format: physicochemical
plasma clots = assay: Plasma clot lysis assay; set-up: species or system human; conditions: 100 μM; for % Plasma Clot lysis: clots formed about 20 h, plasminogen and urokinase about 4 h
Protocol: For this assay, 50 μl of one of a series of concentrations of iodoacetic acid, cerulenin, or ZG-1400a was added to 0.5 ml human citrated plasma (prepared from one blood donor) in 5 ml polypropylene tubes. The ZG-1400a and iodoacetic acid were individually prepared in 10% DMSO and tested using half-log dilutions, starting at a final assay concentration of 100 μM and diluting to 10 μM. Cerulenin was prepared in 10% ethanol and tested using half-log dilutions, starting at a final assay concentration of 100 μM and diluting to 10 μM.
Approximately 10^6 cpm ^125 I-fibrinogen (Amersham), 50 mM CaCl2 (20 mM above citrate concentration) and 5 units thrombin (bovine, Enzyme Research Labs) were added to each test and control tube. The tubes were incubated while rocking for 20 h at 37° C. Plasma clots formed in the tubes were washed three times with about 1 ml phosphate buffered saline (PBS). The plasma clots in each tube were counted after the PBS washes.
Approximately 2 ml of 50 mM Tris, pH 7.4, containing 50 mM NaCl, 28 μg plasminogen (human, Calbiochem), and 280 ng urokinase (human, Calbiochem) were added to the clots in test and control tubes. At 1, 2, and 4 h intervals, 25 μl aliquots of the samples were removed from each tube and counted.
The values shown in Table 3 represent the amount of lysis after plasma clots were formed for about 20 h and exposed to plasminogen and urokinase for about 4 h.

Factor IX (FIX) = assay: Factor IX inhibition assay; format: biochemical; conditions: up to 100 μM, absorbance at 405 nm
Protocol: 60 μl buffer, 10 μl of 40 nM FIX, and 10 μl of one of a series of dilutions of ZG-1400a were added to plate wells. The buffer contained 150 mM NaCl, 5 mM CaCl2, 25 mM Tris, pH 8.0, and 0.1% polyethyleneglycol (PEG). The ZG-1400a was prepared in 10% DMSO and tested using half-log dilutions, starting at a final assay concentration of 100 μM and diluting to 1 nM. A negative (no inhibition) control contained 60 μl buffer, 10 μl of 40 nM FIX, and enough DMSO to give a 1% final DMSO concentration.
The test and control wells were incubated approximately 10 min at room temperature. After incubation, approximately 10 μl of a mixture containing 200 nM FX (Walt Kiesel, University of New Mexico), 500 pM FVIII (Novo Nordisk) and 10 μM PCPS (phosphatidylcholine:phosphatidylserine (Sigma) in a 1:1 ratio) was added to each well. Then 10 μl of 1 mM S2765 substrate (Kabi) was added to each well.
In this assay, FIX converts FX to FXa. […] This determination was made by reading absorbance at 405 nm on a ThermoMax microplate reader.

Factor Xa (FXa) = assay: Factor Xa inhibition assay; format: biochemical; conditions: up to 100 μM, absorbance at 405 nm
Protocol: (§1) For the FVIIa, FXa and thrombin inhibition assays described below, an inhibition assay buffer containing 50 mM Tris, 5 mM CaCl2, 150 mM NaCl, 0.1% Tween 20, and 0.1% BSA (albumin, bovine, Sigma fraction V (Sigma)) at about pH 8.0 was used 2. For each of the inhibition assays, the total reaction volume was 100 μl and the assays were performed in 96-well plates.
About 30 μl inhibition assay buffer, 50 μl of 10 nM FXa and 10 μl of one of a series of dilutions of ZG-1400a were added to plate wells. The ZG-1400a was prepared in 10% DMSO and tested using half-log dilutions, starting at a final assay concentration of 100 μM and diluting to 1 nM. A negative (no inhibition) control contained 30 μl inhibition assay buffer, 50 μl of 10 nM FXa, and enough DMSO to give a 1% final DMSO concentration.
The test and control wells were incubated for about 10 min at room temperature. After the incubation period, 10 mM N-α-benzyloxycarbonyl-D-arginine-L-glycyl-L-arginyl-p-nitroanilide-dihydrochloride (S2765 substrate, Kabi) was added to each well.
(§2) This determination was made by reading absorbance at 405 nm on a ThermoMax microplate reader.

thrombin = assay: Thrombin inhibition assay; format: biochemical, bovine; conditions: up to 100 μM, absorbance at 405 nm
Protocol: as §1
About 30 μl inhibition assay buffer, 50 μl of 2 μg/ml thrombin (bovine, Enzyme Research Labs), and 10 μl of one of a series of dilutions of ZG-1400a were added to plate wells. The ZG-1400a was prepared in 10% DMSO and tested using half-log dilutions, starting at a final assay concentration of 100 μM and diluting to 1 nM. A negative (no inhibition) control contained 30 μl inhibition assay buffer, 50 μl of 2 μg/ml thrombin, and enough DMSO to give a 1% final DMSO concentration.
The test and control wells were incubated for about 10 min at room temperature. After the incubation period, 20 μl of 1 mM SPECTROZYME TH (H-D-hexahydrotyrosyl-L-alanyl-L-arginine-p-nitroanilide-diacetate salt, American Diagnostica, Inc., New York, N.Y.) was added to each well.
as §2

FVIIa = FVIIa inhibition assay; format: biochemical; conditions: up to 100 μM, absorbance at 405 nm
Protocol: as §1
For the FVIIa inhibition assay, about 30 μl of inhibition assay buffer, 25 μl of 20 nM recombinant FVIIa (Walt Kiesel, University of New Mexico), and 10 μl of one of a series of dilutions of ZG-1400a were added to plate wells. The ZG-1400a was prepared in 10% DMSO and tested using half-log dilutions, starting at a final assay concentration of 100 μM and diluting to 1 nM. A negative (no inhibition) control contained 30 μl inhibition assay buffer, 25 μl of 20 nM FVIIa, and enough DMSO to give a 1% final DMSO concentration.
The test and control wells were incubated for about 10 min at room temperature. After incubation, 25 μl of 20 nM tissue factor (Walt Kiesel, University of New Mexico) was added to the wells and incubated for a second 10 min period at room temperature. […]
as §2

Compound | solubility [1] | susceptibility of plasma clots to lysis by plasminogen and urokinase (plasma clots) | % Plasma Clot lysis (plasma clots) [%] | inhibition of FIX activity (Factor IX (FIX)) | inhibition of FXa activity (Factor Xa (FXa)) | inhibition of thrombin activity (thrombin) | inhibition of FVIIa activity (FVIIa)
CC=CCC=CCCC(=O)C1OC1C(N)=O (stereo not drawn) [Cerulenin, 2,3-epoxy-4-oxo-7,10-dodecadienamide] | soluble in ethanol, but not DMSO | significantly more susceptible to lysis | 97 |  |  |  | 
C[C@@H]1CCC/C=C\C(=O)Cc2cc(O)cc(O)c2C(=O)O1 [ZG-1400, R(-) enantiomer of cis-resorcylide] |  | significantly more susceptible to lysis | 46 | Not even the highest concentration of ZG-1400a assayed (100 μM) inhibited FIX activity | not even the highest concentration of ZG-1400a assayed (100 μM) inhibited FXa activity | not even the highest concentration of ZG-1400a assayed (100 μM) inhibited thrombin activity | not even the highest concentration of ZG-1400a assayed (100 μM) inhibited FVIIa activity
